Data published in patent US7396837B2, “Antitumoral analogs of lamellarins” (Pharma Mar, S.A.U., priority 2002, dated 2008).

Tests used:
Type in all cases: cell-based
SK-BR-3 = assay: SRB colorimetric cell growth inhibition assay, SK-BR-3; conditions: SK-BR-3
Procedure, shortened: (§1)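 Continuous drug exposure of human cancer cells; SRB protein stain read-out; triplicate wells, mean ± SD; GI, TGI, LC computed.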

IGROV-ET = assay: SRB colorimetric cell growth inhibition assay, IGROV-ET (ET-743 resistant); conditions: IGROV-ET
Procedure, shortened: as §1

SK-MEL-28 = assay: SRB colorimetric cell growth inhibition assay, SK-MEL-28; conditions: MEL-28
Procedure, shortened: as §1

A-549 = assay: SRB colorimetric cell growth inhibition assay, A-549; conditions: A-549
Procedure, shortened: as §1

HeLa = assay: SRB colorimetric cell growth inhibition assay, HeLa; conditions: HELA
Procedure, shortened: as §1

HT-29 = assay: SRB colorimetric cell growth inhibition assay, HT-29; conditions: HT-29
Procedure, shortened: as §1

PANC-1 = assay: SRB colorimetric cell growth inhibition assay, PANC-1; conditions: PANC-1
Procedure, shortened: as §1

LoVo = assay: SRB colorimetric cell growth inhibition assay, LoVo; conditions: LOVO
Procedure, shortened: as §1

LNCaP = assay: SRB colorimetric cell growth inhibition assay, LNCaP; conditions: LN-caP
Procedure, shortened: as §1

IGROV = assay: SRB colorimetric cell growth inhibition assay, IGROV; conditions: IGROV
Procedure, shortened: as §1

K-562 = assay: SRB colorimetric cell growth inhibition assay, K-562; conditions: K-562
Procedure, shortened: as §1

DU-145 = assay: SRB colorimetric cell growth inhibition assay, DU-145
Procedure, shortened: as §1

HeLa-APL = assay: SRB colorimetric cell growth inhibition assay, HeLa-APL (aplidine resistant); conditions: HELA-APL
Procedure, shortened: as §1

LoVo-Dox = assay: SRB colorimetric cell growth inhibition assay, LoVo-Dox (MDR); conditions: LOVO-DOX
Procedure, shortened: as §1

[1] = total growth inhibition (cytostatic effect)

COc1cc(-c2c3c4cc(OC)c(OC(=O)[C@H](C)N)cc4oc(=O)c3n3ccc4c(OC(=O)[C@H](C)N)c(OC)c(OC)cc4c23)ccc1OC(=O)[C@H](C)N [Compound 191]
GI50 (SK-BR-3; GI=growth inhibition, read-out: GI50 SK-BR-3): 0.555 µM
CC50 (SK-BR-3; cell killing (cytotoxic effect), read-out: LC50 SK-BR-3): 11.7 µM
TGI SK-BR-3 (SK-BR-3; [1]): 3.66E−06 Molar
GI50 (IGROV-ET; GI=growth inhibition, read-out: GI50 IGROV-ET): 0.588 µM
CC50 (IGROV-ET; cell killing (cytotoxic effect), read-out: LC50 IGROV-ET): 11.7 µM
TGI IGROV-ET (IGROV-ET; [1]): 6.96E−06 Molar
GI50 (SK-MEL-28; GI=growth inhibition, read-out: GI50 MEL-28): 0.363 µM
CC50 (SK-MEL-28; cell killing (cytotoxic effect), read-out: LC50 MEL-28): 11.7 µM
TGI MEL-28 (SK-MEL-28; [1]): 1.17E−05 Molar
GI50 (A-549; GI=growth inhibition, read-out: GI50 A-549): 0.573 µM
CC50 (A-549; cell killing (cytotoxic effect), read-out: LC50 A-549): 11.7 µM
TGI A-549 (A-549; [1]): 1.17E−05 Molar
GI50 (HeLa; GI=growth inhibition, read-out: GI50 HELA): 0.948 µM
CC50 (HeLa; cell killing (cytotoxic effect), read-out: LC50 HELA): 8.63 µM
TGI HELA (HeLa; [1]): 2.96E−06 Molar
GI50 (HT-29; GI=growth inhibition, read-out: GI50 HT-29): 6.18 µM
CC50 (HT-29; cell killing (cytotoxic effect), read-out: LC50 HT-29): 11.7 µM
TGI HT-29 (HT-29; [1]): 1.17E−05 Molar
GI50 (PANC-1; GI=growth inhibition, read-out: GI50 PANC-1): 1.27 µM
CC50 (PANC-1; cell killing (cytotoxic effect), read-out: LC50 PANC-1): 11.7 µM
TGI PANC-1 (PANC-1; [1]): 9.66E−06 Molar
GI50 (LoVo; GI=growth inhibition, read-out: GI50 LOVO): 0.513 µM
CC50 (LoVo; cell killing (cytotoxic effect), read-out: LC50 LOVO): 7.9 µM
TGI LOVO (LoVo; [1]): 1.70E−06 Molar
GI50 (LNCaP; Homo sapiens, LNCaP, GI=growth inhibition, read-out: GI50 LN-caP): 0.244 µM
CC50 (LNCaP; cell killing (cytotoxic effect), read-out: LC50 LN-caP): 5.36 µM
TGI LN-caP (LNCaP; [1]): 1.48E−06 Molar
GI50 (IGROV; GI=growth inhibition, read-out: GI50 IGROV): 0.458 µM
CC50 (IGROV; cell killing (cytotoxic effect), read-out: LC50 IGROV): 11.7 µM
TGI IGROV (IGROV; [1]): 2.77E−06 Molar
GI50 (K-562; GI=growth inhibition, read-out: GI50 K-562): 0.129 µM
CC50 (K-562; cell killing (cytotoxic effect), read-out: LC50 K-562): 9.49 µM
TGI K-562 (K-562; [1]): 1.69E−06 Molar
CC50 (DU-145; DU-145, cell killing (cytotoxic effect), read-out: LC50 DU-145): 11.7 µM
GI50 (DU-145; Homo sapiens, DU-145, DU-145, GI=growth inhibition, read-out: GI50 DU-145): 0.0621 µM
IC (TGI) (DU-145; Homo sapiens, DU-145, DU-145, total growth inhibition (cytostatic effect), read-out: TGI DU-145): 0.228 µM
GI50 (HeLa-APL; GI=growth inhibition, read-out: GI50 HELA-APL): 0.94 µM
CC50 (HeLa-APL; cell killing (cytotoxic effect), read-out: LC50 HELA-APL): 5.96 µM
TGI HELA-APL (HeLa-APL; [1]): 2.52E−06 Molar
GI50 (LoVo-Dox; GI=growth inhibition, read-out: GI50 LOVO-DOX): 0.785 µM
CC50 (LoVo-Dox; cell killing (cytotoxic effect), read-out: LC50 LOVO-DOX): 11.7 µM
TGI LOVO-DOX (LoVo-Dox; [1]): 1.17E−05 Molar
